Consider nine compounds from patent US4552872A, “Penetrating topical pharmaceutical compositions containing corticosteroids” (priority 1984, dated 1985).

The nature of data set [1]: Percutaneous penetration study, Franz diffusion apparatus, human skin (*). The note with it: Example 8; for reduction of penetration on addition of the proscribed compound, in words: compared with octanoic acid (reduces penetration by 50%). Format: in vitro ADME.
Method: The following Penetration Studies were carried out in the following manner. […] A normal saline solution is added to the lower diffusion cell, abutting the subcutaneous side of the skin. The test composition (comprising a solution of active or actives added to the carrier at the indicated formulation in a conventional manner by thoroughly mixing) is added to the diffusion cell abutting the epidermal side of the skin at the levels indicated.
This cell assembly is kept at a constant temperature of about 31° C. At appropriate or desired intervals (these are the time designations given in the following examples) each diffusion cell assembly is opened and the diffusate from the cell abutting the subcutaneous side of the skin is withdrawn. Drug actives in a diffusate is measured using standard analytical techniques. Each trial is run on a separate sample of skin.
All ratios represented by A/B, or A/B/C, and all percentages, are by weight. The compounds described as C12-18 OH are the straight chain, saturated, normal alcohols. EtOH is ethanol. The term mcg=microgram.
The conditions of data set [2]: compared with hydrocortisone; cited from earlier work.
Data set [3] relates to dermatitis. Briefly: Topical treatment of dermatitis in a human, composition of Example 32. The class given is in vivo. Particulars: 5 mg/cm^2 of skin three times daily for five days; noted after 48 hours. Here is the method:
The above composition is applied at the afflicted situs of a human afflicted with dermatitis at a rate of 5 mg of composition/cm^2 of skin three times daily for a period of five days.

In the case of `CCCCCCCCCCCCCCCCCCO` [stearyl alcohol], the “reduction of penetration on addition of the proscribed compound, in words” value (shortened to “reduction of penetration on addition … in words”) in data set [1] was “Substantially similar results”.

As to `CCCCCCCCCC(=O)O` [decanoic acid], the “reduction of penetration on addition … in words” value in data set [1] is recorded as “Substantially similar results”.

On to `C[C@]12C=CC(=O)C=C1CC[C@@H]1[C@@H]2[C@@H](O)C[C@@]2(C)[C@H]1CC[C@]2(O)C(=O)CO` [prednisolone], for which, in data set [2], the “change of mineralocorticoid effects by introduction of a double bond at the 1,2 position into hydrocortisone” value was “reducing mineralo corticoid effects”.

As for `CCCCCCCC(=O)O` [octanoic acid], the “reduction of penetration on addition of the proscribed compound” value in data set [1] (1% Triamcinolone in Propylene Glycol + 2% C14 OH, human skin, 0-72 hrs.) is recorded as 50%.

Regarding `COc1c(C(=O)OCC(=O)[C@@]23OC(C)(C)O[C@@H]2C[C@H]2[C@@H]4CCC5=CC(=O)C=C[C@]5(C)[C@@]4(F)[C@@H](O)C[C@@]23C)cc2ccccc2c1Cc1c(OC)c(C(=O)OCC(=O)[C@@]23OC(C)(C)O[C@@H]2C[C@H]2[C@@H]4CCC5=CC(=O)C=C[C@]5(C)[C@@]4(F)[C@@H](O)C[C@@]23C)cc2ccccc12` [flupamesone], the reduction of inflammation entry in data set [3] was “Substantially similar results”.

For the compound `CCCCCCCCCCCCCCCCO` [cetyl alcohol], the “reduction of penetration on addition … in words” value in data set [1] is “Substantially similar results”.

On to `CC1(C)O[C@@H]2C[C@H]3[C@@H]4CCC5=CC(=O)C=C[C@]5(C)[C@@]4(F)[C@@H](O)C[C@]3(C)[C@]2(C(=O)CO)O1` [triamcinolone, Triamcinolone acetonide], for which the reduction of inflammation result in data set [3] is “Substantially similar results”.

As for `CC1(C)O[C@@H]2C[C@H]3[C@@H]4C[C@H](F)C5=CC(=O)C=C[C@]5(C)[C@@]4(F)[C@@H](O)C[C@]3(C)[C@]2(C(=O)CO)O1` [fluocinolone, acetonide, Fluocinolone acetonide], in data set [3], the reduction of inflammation result is reported as “Substantially similar results”.

With `CCCCC(=O)O[C@]1(C(=O)CO)[C@@H](C)C[C@H]2[C@@H]3CCC4=CC(=O)C=C[C@]4(C)[C@@]3(F)[C@@H](O)C[C@@]21C` [betamethasone valerate], the reduction of inflammation entry in data set [3] is “Substantially similar results”.
